Here are results for one molecule from publication PMC9706920, “Aryloxypropanolamine targets amyloid aggregates and reverses Alzheimer-like phenotypes in Alzheimer mouse models” (Alzheimer's Research & Therapy, 2022).

One series addresses T1, Aβ(pE3-42) aggregates (Homo sapiens, UniProt P05067).
T1 construct: Aβ(pE3-42), p[…]; made in house; host or cells: chemical synthesis (Fmoc solid phase peptide synthesis)
Put plainly: ThT fluorescence Aβ(pE3-42) disaggregation assay. The class given is biochemical. To be noted: Fig. 4D. As for the experimental part: ThT fluorescence was used to assess the in vitro inhibition of Aβ(1–42) and disaggregation of Aβ(1–42), Aβ(1–40), Aβ(pE3-42), recombinant tau K18, and tau repeats R1, R2, R3, R4 by YIAD compounds. In house synthetic Aβ(1–42) was dissolved in DMSO (1 mM, 100% DMSO) and diluted to 20-fold in deionized water to make 50 μM Aβ(1–42) stocks (5% DMSO). YIAD compounds were first dissolved in DMSO (100 mM, 100% DMSO) and serially diluted with deionized water to make YIAD stocks with concentrations of 1, 10, 100, and 1000 μM (10% DMSO). For the Aβ(1–42) inhibition assay, monomeric Aβ(1–42) stocks and YIAD stocks were co-incubated at 37°C for 3 days. For Aβ(1–42) disaggregation assay, monomeric Aβ(1–42) stocks were preincubated at 37°C for three days to form Aβ(1–42) aggregates, and subsequently, YIAD stocks were added for an additional 3 days. For Aβ(1-40) disaggregation assays, Aβ(1–40) (50 μM, 5% DMSO) was preincubated at 37°C for 3 days to induce aggregation, and co-incubated with YIAD001 and YIAD002 for an additional 3 days. […] Prior to fluorescence intensity measurement, ThT solution (5 μM) was prepared by dissolving ThT, purchased from Sigma-Aldrich (MO, USA) in 50 mM glycine buffer (pH 8.5). To quantify the effect of inhibition and disaggregation, 25 μL of all samples and 75 μL of ThT solution were loaded into a half-area 96-well black plate in triplicate.

A further series concerns the target T2, CYP 2C9 (Homo sapiens, UniProt P11712).
T2 construct: contained human liver microsomes (0.25 mg/ml); from tissue; host or cells: human liver microsomes
Description: CYP450 inhibition assay, 2C9. The class given is in vitro ADME. Particulars: YIAD002 10 μM, human liver microsomes; weak or no inhibition; read-out: CYP 2C9 inhibition, IC50 (inhibition criteria). Here is the method: (§1) Incubation mixtures for Cytochrome P450s (CYPs) inhibition assay contained human liver microsomes (0.25 mg/ml), 0.1 M phosphate buffer (pH 7.4), 10 μM of YIAD002, and an enzyme substrate cocktail (phenacetin 50 μM, diclofenac 10 μM, S-mephenytoin 100 μM, dextromethorphan 5 μM, and midazolam 2.5 μM). The mixture was pre-incubated at 37°C for 5 min and 1 mM NAPDH was added to initiate reactions. After 15 min of incubation, acetonitrile with terfenadine was added to stop reactions and microsomal solutions were centrifuged at 14,000 rpm at 4°C for 5 min. For LC-MS/MS analysis, supernatants were injected on a Kinetex C18 column (2.1 × 100 mm, 2.6 μm particle size, Phenomenex, USA). The composition of the mobile phase was 0.1% formic acid in water (A) and 0.1% formic acid in acetonitrile (B).
For orientation: Microsomes from liver hold many membrane-bound enzymes, among them those of drug oxidation.

Another series addresses T3, CYP 2C19 (Homo sapiens, UniProt P33261).
T3 construct: contained human liver microsomes (0.25 mg/ml); from tissue; host or cells: human liver microsomes
Put plainly: CYP450 inhibition assay, 2C19. The class given is in vitro ADME. Particulars: YIAD002 10 μM, human liver microsomes; weak or no inhibition; read-out: CYP 2C19 inhibition, IC50 (inhibition criteria). Here is the method:
as §1

The next series concerns the target T4, CYP 2D6 (Homo sapiens, UniProt P10635).
T4 construct: contained human liver microsomes (0.25 mg/ml); from tissue; host or cells: human liver microsomes
Put plainly: CYP450 inhibition assay, 2D6. The class given is in vitro ADME. To be noted: YIAD002 10 μM, human liver microsomes; weak or no inhibition; read-out: CYP 2D6 inhibition, IC50 (inhibition criteria). As for the experimental part:
as §1

The nature of series [1]: Microsomal stability, human. The class given is in vitro ADME. Particulars: 1 μM, 30 min, 37°C. As for the experimental part:
To evaluate the rate of drug metabolism, we tested YIAD002 stability in liver microsomes of human, rat, and mouse. Microsomal concentration was 0.5 mg/ml in 0.1 M phosphate buffer (pH 7.4). 1 μM of YIAD002 was added to microsome solutions and was prewarmed at 37°C for 5 min. NADPH-regenerating solution was added to microsomes and incubated at 37°C for 30 min. At the end of incubation, acetonitrile with chlorpropamide was added to stop reactions and microsomal solutions were centrifuged at 14,000 rpm at 4°C for 5 min. For LC-MS/MS analysis, supernatants were injected on a Kinetex C18 column (2.1 × 100 mm, 2.6 μm particle size, Phenomenex, USA). The composition of the mobile phase was 0.1% formic acid in water (A) and 0.1% formic acid in acetonitrile (B).

Another series addresses α-synuclein aggregates (Homo sapiens, UniProt P37840). Put plainly: ThT dissociation assay against α-synuclein aggregation. The class given is biochemical. Particulars: α-synuclein 35 μM pre-aggregated 3 days, compound additional 3 days. Here is the method: [picture] Figure S5. ThT dissocation assay against α-synuclein aggregation. Dissociative effects of YIAD001 and YIAD002 against α-synuclein aggregation were evaluated using ThT fluorescence. α-synuclein (35 μM) was pre-aggregated for 3 days. YIAD001 and YIAD002 were added to and co-incubated with pre-aggregated samples for an additional 3 days. Aggregation time for α-synuclein is indicated as ‘+’ for 3 days and ‘++’ for 6 days. All fluorescence intensities were normalized and statistically compared to α-synuclein-only 3 days (+) control (100%). One-way analysis of variance followed by Bonferroni’s post-hoc comparisons tests were performed in all statistical analyses (****P < 0.0001). Data are presented as mean ± SEM. Abbreviations: Aggr. = Aggregation, Cpd. = Compound.

Series [2] in a line: Observation of adverse effects in the current studies.

T3 sequence (P33261 whole entry): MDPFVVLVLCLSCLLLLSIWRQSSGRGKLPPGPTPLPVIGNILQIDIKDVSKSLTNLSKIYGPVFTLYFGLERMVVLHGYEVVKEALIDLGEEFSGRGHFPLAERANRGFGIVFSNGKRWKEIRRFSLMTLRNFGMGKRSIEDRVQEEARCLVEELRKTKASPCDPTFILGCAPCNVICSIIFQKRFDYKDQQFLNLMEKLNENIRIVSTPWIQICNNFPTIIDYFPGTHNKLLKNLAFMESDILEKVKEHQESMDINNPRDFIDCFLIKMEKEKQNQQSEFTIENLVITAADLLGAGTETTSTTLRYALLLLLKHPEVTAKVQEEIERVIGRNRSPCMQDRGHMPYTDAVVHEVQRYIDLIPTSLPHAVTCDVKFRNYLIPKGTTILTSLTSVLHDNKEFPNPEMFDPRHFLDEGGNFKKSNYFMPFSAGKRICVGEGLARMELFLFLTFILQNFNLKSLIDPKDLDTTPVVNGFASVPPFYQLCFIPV
T1 sequence (P05067 674-713): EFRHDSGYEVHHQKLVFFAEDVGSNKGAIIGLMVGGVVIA
T4 sequence (P10635 whole entry): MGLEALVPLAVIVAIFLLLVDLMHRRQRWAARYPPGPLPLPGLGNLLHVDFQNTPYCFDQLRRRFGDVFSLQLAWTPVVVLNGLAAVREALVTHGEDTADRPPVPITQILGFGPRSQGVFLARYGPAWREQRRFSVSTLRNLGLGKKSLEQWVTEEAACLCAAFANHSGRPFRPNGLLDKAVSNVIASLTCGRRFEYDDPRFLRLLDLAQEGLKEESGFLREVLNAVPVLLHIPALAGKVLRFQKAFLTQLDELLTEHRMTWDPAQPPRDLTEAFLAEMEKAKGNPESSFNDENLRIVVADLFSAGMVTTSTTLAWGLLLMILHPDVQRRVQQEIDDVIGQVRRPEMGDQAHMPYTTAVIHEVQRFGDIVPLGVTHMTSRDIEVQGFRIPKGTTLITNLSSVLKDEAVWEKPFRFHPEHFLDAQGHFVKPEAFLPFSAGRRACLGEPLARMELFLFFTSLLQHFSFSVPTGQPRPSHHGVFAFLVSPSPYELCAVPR
T2 sequence (P11712 whole entry): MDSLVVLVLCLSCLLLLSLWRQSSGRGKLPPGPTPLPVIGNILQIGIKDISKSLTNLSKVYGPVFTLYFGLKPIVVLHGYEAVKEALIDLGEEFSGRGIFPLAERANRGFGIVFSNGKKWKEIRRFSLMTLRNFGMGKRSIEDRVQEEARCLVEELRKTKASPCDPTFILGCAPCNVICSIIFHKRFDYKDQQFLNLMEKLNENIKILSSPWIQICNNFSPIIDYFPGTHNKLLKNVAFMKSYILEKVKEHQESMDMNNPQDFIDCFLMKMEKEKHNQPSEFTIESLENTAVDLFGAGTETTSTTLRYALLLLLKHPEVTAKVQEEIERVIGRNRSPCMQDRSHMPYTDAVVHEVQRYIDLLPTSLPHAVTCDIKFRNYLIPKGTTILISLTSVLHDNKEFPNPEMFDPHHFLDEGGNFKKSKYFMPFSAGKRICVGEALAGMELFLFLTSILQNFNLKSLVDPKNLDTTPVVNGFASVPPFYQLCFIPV

For `CCC(C)(C)c1ccc(OCC(O)CN2CCCC2)c(C(C)(C)CC)c1.Cl` (stereo not shown) [YIAD002, 1-(3-(2,4-Di-tert-pentylphenoxy)-2-hydroxypropyl)pyrrolidin-1-ium chloride], on Aβ(pE3-42) aggregates, the “Dissociative activity against Aβ(pE3-42) aggregates” value is reported as “dissociative activity”. The IC50 on CYP 2C9, at CYP 2C19 and at CYP 2D6 was greater than 10 µM in each case. The “Remaining compound in human microsomes” value in series [1] amounted to 55.5%. The “Interaction with α-synuclein aggregates (ThT dissociation)” value at α-synuclein aggregates was “did not interact with α-synuclein aggregates”. The “Adverse effects of toxicity” value in series [2] was “not observed”.

The IC50 is the point on the concentration scale where inhibition reaches its midpoint.
